Experimental data published in patent publication US6750012B1, “Method of identifying a psychotropic agent using differential gene expression” (CuraGen Corporation, priority 1998, dated 2004).

How the values were obtained:
[1] = system: HALO5, novel gene fragment, 539 bp; experiment: GENECALLING differential gene expression, striatum of haloperidol-treated rats; assay type: in vivo; details: Wistar rat striatum, 0.041 mg/kg/d for 3 days continuous infusion, vs vehicle
Procedure: (§1) Accordingly, the differentially expressed genes were identified by treating Wistar rats with haloperidol (0.041 mg/kg/d for 3 days via continuous infusion Alza pump), or rats treated with vehicle only for 3 days.
(§2) Rats were then sacrificed, their brains were removed, and total RNA was recovered from the microdissected striatum. cDNA was prepared and the resulting samples were processed through 140 subsequences of GENECALLING™ differential expression analysis as described in U.S. Pat. No. 5,871,697 and in Shimkets et al., Nature Biotechnology 17:198-803 (1999).
(§3) 101 gene fragments were initially found to be differentially expressed in rat striatum in response to haloperidol. The differential expression of 50 of the gene fragments was confirmed using a unlabeled oligonucleotide competition assay as described in Shimkets et al., Nature Biotechnology 17:198-803. 32 single copy nucleic acid sequences genes and 5 repetitive copy nucleic acid sequences differentially expressed in haloperidol and vehicle treated striatum were selected for further analysis elements.

[2] = system: HALO12, rat novel gene fragment, 83% homologous to mouse EGF repeat transmembrane protein; experiment: as above; assay type: in vivo
Procedure: as §1, §2, §3

[3] = system: HALO14, novel gene fragment, 72% similar to rat repetitive ribosomal DNA II 3′ to 45S pre-rRNA [X02822]; experiment: as above; assay type: in vivo
Procedure: as §1, §2, §3

[4] = system: HALO3, rat novel gene fragment, 495 bp; experiment: as above; assay type: in vivo; details: Wistar rat striatum, 0.041 mg/kg/d for 3 days continuous infusion, vs vehicle
Procedure: as §1, §2, §3

[5] = system: HALO15, novel gene fragment, 97% similar to mouse gene fragment with 44% amino acid similarity to human sorting nexin-2; experiment: as above; assay type: in vivo; details: Wistar rat striatum, 0.041 mg/kg/d for 3 days continuous infusion, vs vehicle
Procedure: as §1, §2, §3

[6] = system: HALO4, novel gene fragment, 649 bp; experiment: as above; assay type: in vivo; details: Wistar rat striatum, 0.041 mg/kg/d for 3 days continuous infusion, vs vehicle
Procedure: as §1, §2, §3

[7] = system: HALO8, novel gene fragment, 91% similar to mouse phosphatidylinositol 3 kinase 110 kDa subunit [U03279]; experiment: as above; assay type: in vivo, rat
Procedure: as §1, §2, §3

[8] = system: HALO28, Stomach nonmuscle Ca^+2 ATPase [J04023]; experiment: as above; assay type: in vivo, rat
Procedure: as §1, §2, §3

[9] = system: HALO17, novel gene fragment, 65% similarity to 5′ region of human NOF1 [U39400]; experiment: as above; assay type: in vivo, rat
Procedure: as §1, §2, §3

[10] = system: HALO9, novel gene fragment, 98% similar to mouse meis2 [U57343]; experiment: as above; assay type: in vivo, rat
Procedure: as §1, §2, §3

[11] = system: HALO26, Cathepsin S; experiment: as above; assay type: in vivo, rat
Procedure: as §1, §2, §3

[12] = system: L1 retrotransposon mIvi2-rn38 (HALO32 in Table 1, HALO31 in text); experiment: as above; assay type: in vivo, rat
Procedure: as §1, §2, §3

[13] = system: HALO7, novel gene fragment, 86% similar to human U1 snRNP 70 kDa protein; experiment: as above; assay type: in vivo, rat
Procedure: as §1, §2, §3

[14] = system: HALO6, novel gene fragment, 95% similarity to mouse quaking gene type 1 [U44940]; experiment: as above; assay type: in vivo, rat
Procedure: as §1, §2, §3

[15] = system: long interspersed repetitive DNA sequence LINE3 (HALO30 in Table 1, HALO29 in text); experiment: as above; assay type: in vivo, rat
Procedure: as §1, §2, §3

[16] = system: HALO35, Synaptophysin [p38]; experiment: as above; assay type: in vivo, rat; details: present studies
Procedure: as §1, §2, §3

[17] = system: HALO27, D-Amino acid oxidase; experiment: as above; assay type: in vivo, rat
Procedure: as §1, §2, §3

[18] = system: HALO20, Inositol 1.4.5-triphosphate 3-kinase [M29787]; experiment: as above; assay type: in vivo, rat
Procedure: as §1, §2, §3

[19] = system: HALO19, Ribosomal protein L18a [X14181]; experiment: as above; assay type: in vivo, rat
Procedure: as §1, §2, §3

[20] = system: HALO10, novel gene fragment, 89% similar to human rab5c-like protein [U11293]; experiment: as above; assay type: in vivo, rat
Procedure: as §1, §2, §3

[21] = system: HALO2, novel gene fragment, 121 bp; experiment: as above; assay type: in vivo, rat
Procedure: as §1, §2, §3

[22] = system: HALO24, V-1 protein; experiment: as above; assay type: in vivo, rat
Procedure: as §1, §2, §3

[23] = system: Long interspersed repetitive DNA containing 7 ORFs (HALO31 in Table 1, HALO30 in text); experiment: as above; assay type: in vivo, rat
Procedure: as §1, §2, §3

[24] = system: HALO22, NGFI-B [U17254]; experiment: as above; assay type: in vivo, rat
Procedure: as §1, §2, §3

[25] = system: HALO13, novel gene fragment, 80% similar to human suilisol [L26247]; experiment: as above; assay type: in vivo, rat
Procedure: as §1, §2, §3

[26] = system: HALO33, NGF1-A; experiment: as above; assay type: in vivo, rat
Procedure: as §1, §2, §3

[27] = system: HALO23, Neurogranin [L09119]; experiment: as above; assay type: in vivo, rat
Procedure: as §1, §2, §3

[28] = system: L1 retrotransposon ORF2 (HALO29 in Table 1, HALO32 in text); experiment: as above; assay type: in vivo, rat
Procedure: as §1, §2, §3

[29] = system: HALO1, novel gene fragment, 86 bp; experiment: as above; assay type: in vivo, rat
Procedure: as §1, §2, §3

[30] = system: HALO25, 190 kDa ankyrin isoform; experiment: as above; assay type: in vivo, rat
Procedure: as §1, §2, §3

[31] = system: HALO16, novel gene fragment, 70% similar to E. coli putative ATP-dependent RNA helicase RHLB [P24229]; experiment: as above; assay type: in vivo, rat
Procedure: as §1, §2, §3

[32] = system: HALO21, 2′-3′ cyclic nucleotide 3′ phosphodiesterase [CNPII] [L16532]; experiment: as above; assay type: in vivo, rat
Procedure: as §1, §2, §3

[33] = system: HALO34, JunB [X54686]; experiment: as above; assay type: in vivo, rat
Procedure: as §1, §2, §3

[34] = system: HALO11, novel gene fragment, 88% similar to human KIAA0383 gene [AB002381]; experiment: as above; assay type: in vivo, rat
Procedure: as §1, §2, §3

[35] = system: HALO18, novel gene fragment, encoded polypeptide 80% similar to human predicted protein DJ257A7.1 [AL008729]; experiment: as above; assay type: in vivo, rat
Procedure: as §1, §2, §3

[36] = system: Inisotaol monophsphates; details: 4-6 weeks following administration, decanoate dosing; cited from earlier work
[37] = system: rats; experiment: Motor disturbances in rats treated for 28 days; assay type: in vivo, rat
[38] = system: sigma receptors; details: Seth et al, J Neurochem 70; cited from earlier work
[39] = Wistar rat striatum, 0.041 mg/kg/d for 3 days continuous infusion, vs vehicle
[40] = haloperidol-treated rats, striatum
[41] = haloperidol-treated rats, striatum, present studies

For `O=C(CCCN1CCC(O)(c2ccc(Cl)cc2)CC1)c1ccc(F)cc1` [haloperidol], the “Haloperidol Effect on Transcript Level: HALO5” value [1] was −1.5, the “Haloperidol Effect on Transcript Level: HALO12” value [2, 39] was “+3” and the HALO12 expression increased [2, 40] was 3 fold. The “Haloperidol Effect on Transcript Level: HALO14” value [3, 39] was −5, the HALO14 expression diminished [3, 40] was 5 fold and the “Haloperidol Effect on Transcript Level: HALO3” value [4] was −2.5. The “Haloperidol Effect on Transcript Level: HALO15” value [5] was “+1.0”, the “Haloperidol Effect on Transcript Level: HALO4” value [6] was −3 and the “Haloperidol Effect on Transcript Level: HALO8” value [7, 39] was −2. The HALO8 expression diminished [7, 40] was 2 fold, the “Haloperidol Effect on Transcript Level: HALO28 Stomach nonmuscle Ca^+2 ATPase” value [8, 39] was “+2” and the “HALO28 (stomach nonmuscle Ca+2 ATPase) expression increased” value [8, 40] was 2 fold. For the same compound, the “Haloperidol Effect on Transcript Level: HALO17” value [9, 39] was −10, the HALO17 expression diminished [9, 40] was 10 fold and the “Haloperidol Effect on Transcript Level: HALO9” value [10, 39] was “+1.6”. For the same compound, the HALO9 expression increased [10, 40] was 1.6 fold, the “Haloperidol Effect on Transcript Level: HALO26 Cathepsin S” value [11, 39] was −1.7 and the “HALO26 (cathepsin S) expression decreased” value [11, 40] was 1.7 fold. The “Haloperidol Effect on Transcript Level: HALO32 L1 retrotransposon mIvi2-rn38” value [12, 39] was −5.5, the “L1 retrotransposon ml vi2-m38 expression decreases (text: HALO31)” value [12, 40] was 5.5 fold and the “Haloperidol Effect on Transcript Level: HALO7” value [13, 39] was −1.7. For the same compound, the HALO7 expression diminished [13, 40] was 1.7 fold, the “Haloperidol Effect on Transcript Level: HALO6” value [14, 39] was −2 and the HALO6 expression decreased [14, 40] was 2 fold. The “Haloperidol Effect on Transcript Level: HALO30 LINE3” value [15, 39] was −5, the “LINE3 expression decreases (text: HALO29)” value [15, 40] was 5 fold and the “HALO35 (synaptophysin) expression varied” value [16] was roughly 1 fold. For the same compound, the “Haloperidol Effect on Transcript Level: HALO27 D-Amino acid oxidase” value [17, 39] was −2.0, the “HALO27 (D-amino acid oxidase) expression decreased” value [17, 40] was 2.0 fold and the “Haloperidol Effect on Transcript Level: HALO20 Inositol 1.4.5-triphosphate 3-kinase” value [18, 39] was “+2”. The HALO20 expression increased [18, 40] was 2 fold, the “Haloperidol Effect on Transcript Level: HALO19 Ribosomal protein L18a” value [19, 39] was “+1.8” and the “HALO19 (L18a) transcription increased” value [19, 40] was 1.8 fold. The “Haloperidol Effect on Transcript Level: HALO10” value [20, 39] was −2.0, the HALO10 expression diminished [20, 40] was 2 fold and the “Haloperidol Effect on Transcript Level: HALO2” value [21, 39] was −2. For the same compound, the HALO2 expression decreased [21, 40] was 2 fold, the “Haloperidol Effect on Transcript Level: HALO24 V-1 protein” value [22, 39] was −2.0 and the “HALO24 (V-1 protein) expression decreased” value [22, 40] was 2.0 fold. For the same compound, the “Haloperidol Effect on Transcript Level: HALO31 Long interspersed repetitive DNA containing 7 ORFs” value [23, 39] was −3.5, the “long interspersed repetitive DNA containing 7 ORF expression decreases (text: HALO30)” value [23, 40] was 3.5 fold and the “Haloperidol Effect on Transcript Level: HALO22 NGFI-B” value [24, 39] was “+2.4”. For the same compound, the “NGFI-B expression increased (under heading HALO22)” value [24, 40] was 2.4 fold, the “Haloperidol Effect on Transcript Level: HALO13” value [25, 39] was “+6.3” and the HALO13 expression increased [25, 40] was 6.3 fold. The “Haloperidol Effect on Transcript Level: HALO33 NGF1-A” value [26, 39] was −3, the “HALO33 (NGF1-A) expression increased” value [26, 41] was 1.6 fold and the “Haloperidol Effect on Transcript Level: HALO23 Neurogranin” value [27, 39] was “+1.1”. For the same compound, the “HALO23 (neurogranin) expression increased” value [27, 40] was 1.1 fold, the “Haloperidol Effect on Transcript Level: HALO29 L1 retrotransposon ORF2” value [28, 39] was −3.3 and the “L1 retrotransposon ORF2 expression decreases (text: HALO32)” value [28, 40] was 3.3 fold. The “Haloperidol Effect on Transcript Level: HALO1” value [29, 39] was −2.9, the HALO1 expression decreased [29, 40] was 2.9 fold and the “Haloperidol Effect on Transcript Level: HALO25 190 kDa ankyrin isoform” value [30, 39] was −2.0. The “HALO25 (190 kDA ankyrin isoform) expression decreased” value [30, 40] was 2.0 fold, the “Haloperidol Effect on Transcript Level: HALO16” value [31, 39] was −8 and the HALO16 expression diminished [31, 40] was 8 fold. The “Haloperidol Effect on Transcript Level: HALO21 CNPII” value [32, 39] was −3, the “HALO21 (CNPII) expression decreases” value [32, 40] was 3.0 folf and the “Haloperidol Effect on Transcript Level: HALO34 JunB” value [33, 39] was “+4”. The “HALO34 (JunB) expression increased” value [33, 41] was 4 fold, the “Haloperidol Effect on Transcript Level: HALO11” value [34, 39] was −2.0 and the HALO11 expression increased [34, 40] was 4 fold. The “Haloperidol Effect on Transcript Level: HALO18” value [35, 39] was −2.5, the HALO18 expression diminished [35, 40] was 2.5 fold and the Inositol monophosphates level [36] was “decrease”. For the same compound, the motor disturbances [37] was “motor disturbances that parallel human pathology” and the “binding activity with sigma receptors” value [38] was “binding activity”.
